Source: PubChem BioAssay (NCI)
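Interpolation was linear, between the two tested concentrations surrounding the appropriate level; five concentrations were tested over 48 hours in 96-well plates. Abbreviation: GI50, concentration required for 50% inhibition of growth. TGI: total growth inhibition.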

Key:
Assay in all cases: DTP human tumour cell line panel, 48 h
[1] = tested on: TK-10 renal
[2] = tested on: MALME-3M melanoma
[3] = tested on: NCI/ADR-RES ovarian
[4] = tested on: PC-3 prostate
[5] = tested on: NCI-H460 lung
[6] = tested on: MCF7 breast
[7] = tested on: MDA-MB-231 breast
[8] = tested on: A549 NSCLC
[9] = tested on: SNB-75 CNS
[10] = tested on: DU-145 prostate

Row | SMILES | TGI [1] | TGI [2] | TGI [3] | TGI [4] | TGI [5] | TGI [6] | TGI [7] | TGI [8] | TGI [9] | TGI [10] | GI50 [1] | GI50 [2] | GI50 [3] | GI50 [4] | GI50 [5] | GI50 [6] | GI50 [7] | GI50 [8] | GI50 [9] | GI50 [10]
1 | CC1(C)CCC2(C(=O)O)C(O)CC3(C)C(=CCC4C5(C)CCC(OC6OCC(O)C(O)C6OC6OCC(O)C(O)C6OC6OCC(O)C(OC7OC(CO)C(O)C(O)C7O)C6O)C(C)(C)C5CCC43C)C2C1 (stereo not given) | > 100 µM | 78.4 µM | > 100 µM | > 100 µM | > 100 µM | > 100 µM | > 100 µM | > 100 µM | 40.1 µM | > 100 µM |  |  |  |  |  |  |  |  |  | 
2 | O=C(NNC1=NS(=O)(=O)c2ccccc2N1c1ccccc1)c1cnccn1 | > 100 µM | > 100 µM | > 100 µM | > 100 µM | > 100 µM | > 100 µM | > 100 µM | > 100 µM | > 100 µM | > 100 µM | > 100 µM | > 100 µM | > 100 µM | > 100 µM | > 100 µM | > 100 µM | > 100 µM | > 100 µM | > 100 µM | > 100 µM
3 | CC(=O)NC(CCc1ccc(Cl)c(Cl)c1)c1cccc(O)c(=O)c1 (stereo not given) | > 100 µM | 7.12 µM | 4.92 µM | 24.7 µM | 11.8 µM | 37.4 µM | 15.5 µM | 11.5 µM | 17.1 µM | > 49.2 µM | 0.864 µM | 1.45 µM | 0.338 µM | 0.78 µM | 0.407 µM | 0.412 µM | 0.709 µM | 0.527 µM | 1.87 µM | 1.18 µM
4 | CC[C@]1(O)CC2CN(CCc3c([nH]c4ccccc34)C(C(=O)OC)(c3cc4c(cc3OC)N(C=O)[C@H]3[C@@](O)(C(=O)OC)[C@H](OC(C)=O)[C@]5(CC)[C@@H]6C[C@@H]6CN6CC[C@]43[C@@H]65)C2)C1 (stereo not given in full) | 17.5 µM | 17.9 µM | 1.23 µM | > 12.3 µM | > 11.2 µM | > 11.7 µM | 0.191 µM | > 30.7 µM | 13.4 µM | < 0.00325 µM | < 0.00325 µM | 0.104 µM | 0.179 µM | < 0.00325 µM | < 0.00325 µM | < 0.00325 µM | < 0.00325 µM | < 0.00325 µM | < 0.00325 µM | < 0.00325 µM
5 | O=C(O)C1CC[N-]CC1.O=C(O)C1CC[N-]CC1.[NH2-].[NH2-].[Pt+4] | > 100 µM | > 100 µM | > 100 µM | > 100 µM | > 100 µM | > 100 µM | > 100 µM | > 100 µM | > 100 µM | > 100 µM | > 100 µM | > 100 µM | > 100 µM | > 100 µM | > 100 µM | > 100 µM | > 100 µM | > 100 µM | > 100 µM | > 100 µM
6 | c1ccc(C2=Nc3ccccc3N3CNN=C23)cc1 | > 100 µM | > 100 µM | > 100 µM | > 100 µM | > 100 µM | > 100 µM | > 100 µM | > 100 µM | 86.6 µM | > 100 µM | 79.4 µM | > 100 µM | > 100 µM | > 100 µM | > 100 µM | > 100 µM | 40.7 µM | > 100 µM | 25.8 µM | 81.9 µM
7 | COc1ccc(-c2cc(-c3ccc(Cl)cc3)nc(SCCCC(=O)NO)n2)cc1OC | 8.28 µM | 5.64 µM | 2.54 µM | 3.03 µM | 3.4 µM | 5.39 µM | 4.29 µM | 8.59 µM | 6.31 µM | 4.73 µM | 0.537 µM | 1.6 µM | 0.368 µM | 0.944 µM | 0.466 µM | 1.63 µM | 0.788 µM | 1.58 µM | 1.49 µM | 0.811 µM
8 | CN1CCC(=C(c2ccc(Cl)cc2)c2ccccn2)CC1 | > 100 µM | > 100 µM | > 100 µM | > 100 µM | > 100 µM | > 100 µM | > 100 µM | > 100 µM | > 100 µM | > 100 µM | > 100 µM | 40.9 µM | > 100 µM | 80.5 µM | > 100 µM | > 100 µM | 34.5 µM | > 100 µM | 31 µM | > 100 µM
9 | COc1cccc(N2C(=N)/C(=C3\Nc4ccccc4S3)CC2=O)c1 | > 100 µM | > 100 µM | > 100 µM | > 100 µM | 26.3 µM | > 100 µM | > 100 µM | > 100 µM | 57.3 µM | > 100 µM | 17.8 µM | > 100 µM | 15.8 µM | 3.03 µM | 2.89 µM | 6.65 µM | 51.1 µM | 5.49 µM | 10.3 µM | 44.3 µM
